How the values were obtained:
[1] = biological target: T1, CYP3A4 (Homo sapiens, UniProt P08684); assay: Cytochrome P450 3A4 assay (P450-Glo); format: in vitro ADME; conditions: for inhibition at 10 µM: human
T1 construct: purchased Promega; host or cells: baculovirus-infected insect cells
Text: (§1) These assays made use of the PromegaP450-Glo™ (Madison, AL, USA) assay platform. Each CYP450 assay includes microsomal preparations of cytochromes from baculovirus-infected insect cells.

[2] = system: 786-O (renal carcinoma) cell line; assay: Mitochondrial toxicity (MitoTracker Red CMXRos uptake, high content imaging); format: cell-based; set-up: key to % Mitochondrial toxicity: NI: no inhibition; conditions: for % Mitochondrial toxicity: 10 µM, 100% = mitotoxic, 0% = not mitotoxic; for IC50: Homo sapiens, 786-0, read-out: IC50 Mitochondria
Description: This made use of MitoTracker® Red chloromethyl-X-rosamine (CMXRos) uptake and High Content Imaging to monitor compound mediated mitochondrial toxicity in the 786-O (renal carcinoma) cell line. Cells were maintained using Roswell Park Memorial Institute-1640 (RPMI-1640) medium from Capricorn Scientific GmbH, Ebsdorfergrund, Germany containing 2 mM glutamine, FBS (10% v/v), streptomycin (100 μg/mL) and penicillin G (100 U/mL).

[3] = system: L. infantum (MHOM/BR/1972/BH46) intracellular amastigotes; assay: Activity against L. infantum intramacrophage amastigotes (high-content imaging); format: cell-based, Leishmania infantum; conditions: 50 μM, amastigotes; for inhibition at 50 µM: Leishmania infantum, read-out: % inh. L. infantum (50 μM)
Description: […] THP-1 cells were plated onto 384-well plates in Roswell Park Memorial Institute (RPMI) 1640 medium, Hyclone, GE Healthcare Life Sciences (Issaquah, WA, USA) containing 50 ng/mL phorbol 12-myristate 13-acetate (PMA, Sigma-Aldrich, Saint Louis, MS, USA), and incubated for 48 h. Then, 6 day-old promastigotes were added, at a ratio of 50 parasites per each THP-1 cell seeded earlier. After 24 h of infection, negative controls (0.5% DMSO), positive controls (10 μM amphotericin B) or compounds were added to the plate. Assay plates were incubated for 48 h, and then fixed with 4% paraformaldehyde and stained with Draq 5. The Operetta high-content automated imaging system was used to acquire images and the Harmony Software was optimized to quantify the host cell number, the infection ratio and the number of parasites per infected cell. The ratio between infected cells and total number of cells is then calculated, and defined as the Infection Ratio (IR). The raw data for IR values was normalized to negative—DMSO (mock)-treated infected cells—and positive (non-infected cells) controls to determine the normalized antiparasitic activity.

[4] = biological target: T2, CYP2C9 (Homo sapiens, UniProt P11712); assay: Cytochrome P450 2C9 assay (P450-Glo); format: in vitro ADME; conditions: for inhibition at 10 µM: human
T2 construct: purchased Promega; host or cells: baculovirus-infected insect cells
T2 sequence (P11712 whole entry): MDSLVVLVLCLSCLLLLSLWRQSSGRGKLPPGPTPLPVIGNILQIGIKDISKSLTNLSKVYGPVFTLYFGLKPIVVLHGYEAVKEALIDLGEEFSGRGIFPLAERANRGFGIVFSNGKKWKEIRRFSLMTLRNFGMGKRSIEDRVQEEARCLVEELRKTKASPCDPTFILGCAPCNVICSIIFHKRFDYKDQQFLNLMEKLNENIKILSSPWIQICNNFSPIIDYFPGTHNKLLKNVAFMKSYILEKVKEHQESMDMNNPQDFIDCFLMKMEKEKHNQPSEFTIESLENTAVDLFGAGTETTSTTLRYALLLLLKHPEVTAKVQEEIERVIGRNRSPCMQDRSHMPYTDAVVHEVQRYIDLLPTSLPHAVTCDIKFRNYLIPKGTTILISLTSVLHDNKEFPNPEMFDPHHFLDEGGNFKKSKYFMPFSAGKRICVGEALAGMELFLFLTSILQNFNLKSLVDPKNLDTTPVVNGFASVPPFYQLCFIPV
Text: as §1

[5] = biological target: T3, CYP2C19 (Homo sapiens, UniProt P33261); assay: Cytochrome P450 2C19 assay (P450-Glo); format: in vitro ADME; conditions: for inhibition at 10 µM: human
T3 construct: purchased Promega; host or cells: baculovirus-infected insect cells
T3 sequence (P33261 whole entry): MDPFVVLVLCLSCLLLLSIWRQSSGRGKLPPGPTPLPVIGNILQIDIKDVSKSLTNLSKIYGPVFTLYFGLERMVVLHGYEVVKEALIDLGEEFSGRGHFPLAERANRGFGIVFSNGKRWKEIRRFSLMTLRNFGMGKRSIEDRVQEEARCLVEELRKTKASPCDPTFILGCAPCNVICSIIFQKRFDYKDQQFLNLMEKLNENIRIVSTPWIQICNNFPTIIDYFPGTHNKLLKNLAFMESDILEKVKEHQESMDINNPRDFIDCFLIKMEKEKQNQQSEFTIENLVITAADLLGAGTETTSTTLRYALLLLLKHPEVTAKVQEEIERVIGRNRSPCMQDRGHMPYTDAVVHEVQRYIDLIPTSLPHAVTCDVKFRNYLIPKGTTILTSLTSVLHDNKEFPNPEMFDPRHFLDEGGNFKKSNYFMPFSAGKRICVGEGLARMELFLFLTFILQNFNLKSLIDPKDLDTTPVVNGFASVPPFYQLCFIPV
Text: as §1

[6] = system: A549 cells; assay: Cytotoxicity assay against A549 cells (CellTiter-Glo); format: cell-based; conditions: 100% = not cytotoxic, 0% = cytostatic
Description: (§2) The assays were performed using the CellTiter-Glo assay from Promega (Madison, AL, USA). The assay detects cellular adenosine triphosphate (ATP) content with the amount of ATP being directly proportional to the number of cells present. The A549 cells were obtained from DSMZ (German Collection of Microorganisms and Cell Cultures, Braunschweig, Germany) and W1-38 cells were obtained from ATCC (ATCC® CCL-75™) and were grown in Dulbecco's Modified Eagle Medium (DMEM) from Capricorn Scientific GmbH, Ebsdorfergrund, Germany with fetal bovine serum (FBS) (10% v/v) from Capricorn Scientific GmbH, Ebsdorfergrund, Germany, streptomycin (100 μg/mL) and penicillin G (100 U/mL).

[7] = Cytotoxicity against THP-1 macrophages (MTT); format: cell-based; conditions: human, THP-1-derived macrophages; THP-1 macrophage-like cells; NOAEL = no observed adverse effect level; read-out: CC50 ± SD or NOAEL
Description: The effect of compounds 1–3 on THP-1-derived macrophages was assessed by the colorimetric (MTT) assay (3-(4,5-dimethylthiazol-2-yl)-2,5-diphenyl tetrazolium bromide).

[8] = biological target: T4, hERG channel (Homo sapiens, UniProt Q12809); assay: hERG fluorescence polarisation assay (Predictor); format: binding; conditions: for inhibition at 10 µM: human
T4 construct: purchased Invitrogen
T4 sequence (Q12809 whole entry): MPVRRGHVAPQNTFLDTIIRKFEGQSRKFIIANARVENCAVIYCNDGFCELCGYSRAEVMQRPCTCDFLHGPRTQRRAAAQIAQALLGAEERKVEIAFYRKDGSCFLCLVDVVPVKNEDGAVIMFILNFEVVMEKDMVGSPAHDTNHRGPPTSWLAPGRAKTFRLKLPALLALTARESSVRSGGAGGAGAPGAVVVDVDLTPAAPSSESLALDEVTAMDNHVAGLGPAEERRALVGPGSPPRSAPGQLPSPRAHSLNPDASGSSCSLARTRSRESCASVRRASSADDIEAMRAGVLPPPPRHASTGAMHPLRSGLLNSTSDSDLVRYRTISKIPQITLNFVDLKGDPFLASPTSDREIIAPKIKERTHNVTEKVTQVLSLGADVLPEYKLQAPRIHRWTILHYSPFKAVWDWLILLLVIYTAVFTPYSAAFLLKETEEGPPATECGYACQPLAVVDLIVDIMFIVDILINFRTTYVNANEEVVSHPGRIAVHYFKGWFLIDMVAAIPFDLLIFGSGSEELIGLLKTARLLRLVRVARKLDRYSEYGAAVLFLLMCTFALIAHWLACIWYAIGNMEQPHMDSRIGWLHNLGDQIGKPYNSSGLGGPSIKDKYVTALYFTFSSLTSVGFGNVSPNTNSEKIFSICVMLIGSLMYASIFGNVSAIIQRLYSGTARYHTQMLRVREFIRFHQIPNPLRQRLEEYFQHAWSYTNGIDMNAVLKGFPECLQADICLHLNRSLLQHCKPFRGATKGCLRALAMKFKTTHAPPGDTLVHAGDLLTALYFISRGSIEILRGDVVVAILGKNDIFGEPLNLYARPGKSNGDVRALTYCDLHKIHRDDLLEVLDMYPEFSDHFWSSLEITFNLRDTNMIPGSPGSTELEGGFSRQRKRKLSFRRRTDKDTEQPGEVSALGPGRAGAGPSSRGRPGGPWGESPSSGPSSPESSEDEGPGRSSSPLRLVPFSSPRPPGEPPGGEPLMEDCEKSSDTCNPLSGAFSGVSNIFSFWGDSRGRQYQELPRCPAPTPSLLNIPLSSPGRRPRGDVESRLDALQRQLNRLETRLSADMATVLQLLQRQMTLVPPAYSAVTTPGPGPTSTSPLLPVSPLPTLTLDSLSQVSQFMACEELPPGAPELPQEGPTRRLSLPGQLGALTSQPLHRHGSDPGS
Text: The assay made use of Invitrogen’s Predictor™ hERG Fluorescence Polarisation Assay. This uses a membrane fraction containing hERG channel (Predictor™ hERG Membrane) and a high-affinity red fluorescent hERG channel ligand, or “tracer” (Predictor™ hERG Tracer Red), whose displacement by test compounds can be determined in a homogenous, Fluorescence Polarisation (FP)-based format.

[9] = system: W1-38 cells; assay: Cytotoxicity assay against W1-38 cells (CellTiter-Glo); format: cell-based; conditions: 100% = not cytotoxic, 0% = cytostatic
Description: as §2

[10] = biological target: T5, CYP1A2 (Homo sapiens, UniProt P05177); assay: Cytochrome P450 1A2 assay (P450-Glo); format: in vitro ADME; conditions: for inhibition at 10 µM: human
T5 construct: purchased Promega; host or cells: baculovirus-infected insect cells
T5 sequence (P05177 1-516): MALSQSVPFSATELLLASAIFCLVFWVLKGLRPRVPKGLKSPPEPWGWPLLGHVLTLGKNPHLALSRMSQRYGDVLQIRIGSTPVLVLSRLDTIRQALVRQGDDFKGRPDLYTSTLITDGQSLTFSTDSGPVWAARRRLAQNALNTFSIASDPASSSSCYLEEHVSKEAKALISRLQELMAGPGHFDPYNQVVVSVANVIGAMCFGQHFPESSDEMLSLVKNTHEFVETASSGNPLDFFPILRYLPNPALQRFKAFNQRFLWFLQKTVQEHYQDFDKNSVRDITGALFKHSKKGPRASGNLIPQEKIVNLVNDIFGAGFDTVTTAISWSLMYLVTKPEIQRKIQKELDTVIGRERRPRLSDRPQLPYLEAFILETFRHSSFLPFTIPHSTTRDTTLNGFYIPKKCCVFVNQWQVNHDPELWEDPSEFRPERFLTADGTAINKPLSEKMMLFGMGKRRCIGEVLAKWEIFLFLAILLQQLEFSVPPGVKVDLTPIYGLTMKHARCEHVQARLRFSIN
Text: as §1

[11] = system: T. brucei bloodstream forms; assay: Activity against T. brucei bloodstream forms (resazurin-based assay); format: cell-based, Trypanosoma brucei; conditions: for EC50 / inhibition at 10 µM: bloodstream form; for EC50: dose response; for inhibition at 10 µM: read-out: % inh. T. brucei (10 μM); for selectivity index (SI): ratio between CC50 toward THP-1 and EC50 toward T. brucei
Description: The efficacy of compounds against T. brucei bloodstream forms was evaluated using a modified resazurin-based assay previously described in literature.

T1 sequence (P08684 whole entry): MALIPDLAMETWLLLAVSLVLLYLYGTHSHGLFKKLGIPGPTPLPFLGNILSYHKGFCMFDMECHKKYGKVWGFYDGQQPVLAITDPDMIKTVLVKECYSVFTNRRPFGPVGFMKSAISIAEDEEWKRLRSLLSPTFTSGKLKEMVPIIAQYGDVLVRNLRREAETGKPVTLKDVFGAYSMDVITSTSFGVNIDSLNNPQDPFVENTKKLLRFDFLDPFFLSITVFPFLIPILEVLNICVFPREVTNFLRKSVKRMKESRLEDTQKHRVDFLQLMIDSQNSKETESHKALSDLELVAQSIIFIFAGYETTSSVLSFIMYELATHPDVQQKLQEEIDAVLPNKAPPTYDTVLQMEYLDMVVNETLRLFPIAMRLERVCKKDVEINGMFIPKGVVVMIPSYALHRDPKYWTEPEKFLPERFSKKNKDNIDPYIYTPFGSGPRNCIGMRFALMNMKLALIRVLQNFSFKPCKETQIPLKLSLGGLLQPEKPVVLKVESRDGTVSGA

| SMILES | IC50 [1] | inhibition at 10 µM [1] | % Mitochondrial toxicity [2] | IC50 [2] | inhibition at 50 µM [3] | IC50 [4] | inhibition at 10 µM [4] | IC50 [5] | inhibition at 10 µM [5] | % Cell growth A549 (10 μM) [6] | CC50 [7] | IC50 [8] | inhibition at 10 µM [8] | % Cell growth W1-38 (10 μM) [9] | IC50 [10] | inhibition at 10 µM [10] | EC50 ([11]; Trypanosoma brucei) | inhibition at 10 µM ([11]; Trypanosoma brucei) | EC50 [11] | selectivity index (SI) [11] | further results |
| --- | --- | --- | --- | --- | --- | --- | --- | --- | --- | --- | --- | --- | --- | --- | --- | --- | --- | --- | --- | --- | --- |
| O=C1CC(c2ccc(O)cc2)Oc2ccc(O)cc21 (stereo not drawn) [Compound 2] | > 100 µM | < 15% | NI | > 100 µM | 29% | > 100 µM | < 15% | 4 µM | 44.5% | 105% | > 100 µM | > 100 µM | 14% | 91% | 59 µM | < 15% | 13 ± 1.82 µM | 49% | 13 ± 1.8 µM | higher than 7 |  |
| O=C1CC(c2cccc(O)c2)Oc2ccc(O)cc21 (stereo not drawn) [Compound 1] | 80 µM | < 15% | 6% | > 100 µM | 31% | 72 µM | < 15% | 1 µM | 77.2% | 137% | > 100 µM | > 100 µM | 7% | 108% | 29 µM | 3% | 12.6 ± 1.69 µM | 44% | 12.6 ± 1.7 µM | greater than 7 |  |
| O=C1CC(c2ccc(O)c(O)c2)Oc2ccc(O)cc21 (stereo not drawn) [Compound 3] | 65 µM | < 15% | NI | > 100 µM | 3% | 4 µM | < 15% | 5 µM | 2.68% | 124% | > 100 µM | 64 µM | 20% | 86% | 62 µM | < 15% | 34.8 ± 1.1 µM | 14% | 34.8 ± 1.1 µM |  | % inh. L. infantum (50 μM) [3]: inactive |

Reference: article PMC6155272, “Chroman-4-One Derivatives Targeting Pteridine Reductase 1 and Showing Anti-Parasitic Activity” (Molecules : A Journal of Synthetic Chemistry and Natural …, 2017)
